Reference: patent publication US20240082296A1, “TREATMENT OF MUSCLE ATROPHY USING DEXTRAN SULFATE” (TX MEDIC AB, priority 2020, published 2024)

System: patients with ALS
Assay: Phase IIa trial in ALS patients: serum myoglobin and creatine kinase (Example 2)
Type: in vivo, human
Protocol: A clinical trial in the form of a Phase IIa, single-center, open label, single-arm study where the safety, tolerability and possible efficacy of subcutaneously administered dextran sulfate was evaluated in patients with ALS of intermediate progression rate. The clinical trial was conducted at the Sahlgrenska University Hospital, Gothenburg, Sweden and was overseen and approved by the Ethics Committee of the University of Gothenburg and by the Swedish Medical Products Agency.
Dextran sulfate (Tikomed AB, Viken, Sweden, WO 2016/076780) was administered at 1 mg/kg by […] subcutaneous injection once a week for five weeks to 13 human patients suffering from ALS.
Blood samples were drawn at defined study intervals by a venous catheter into vacutainer tubes. Laboratory analyses of blood plasma were performed immediately after collection by the Clinical Chemistry Laboratory at the Sahlgrenska University Hospital.

For dextran sulfate, the “reduction in serum creatine kinase levels” value (after 4 weeks) was 13.3%, the “reduction in serum myoglobin levels” value (after 4 weeks vs Day 1) was 30% and the serum myoglobin levels (after 4 weeks, 1 mg/kg s.c. once a week, Day 1: 133.92±126.28, p=0.021) was 103.69 ± 72.16 µg/L. For the same substance, the “serum creatine kinase levels” value (after 4 weeks, 1 mg/kg s.c. once a week, before 7.15±5.74, p<0.05) was 6.2±5.08 μkat/L.
